Measurements published in US8962624B2, “Morpholines as selective inhibitors of cytochrome P450 2A13” (University of Kansas, priority 2007, dated 2015).
pKd: −log10 of the molar value. Where “and” joins values, the source holds several entries; their conditions need not be identical. Equal values may be shown once. Where a name gives a salt, the structure may show the parent alone. Read-outs that look alike come from different tables or passages of the source.

Legend:
CYP2A6 = target: T1, CYP2A6 (Homo sapiens, UniProt P11509); assay: Spectral shift ligand binding titration with purified CYP2A6dH; details: for pKd / 2A6 Av. Kd: Table 1, average Kd; for pKd: read-out: 2A6 Av. Kd; for binding to CYP2A6 in titration / spectral shift with CYP2A6: result in words
T1 construct: truncation of the non-catalytic N-terminal transmembrane helix and addition of a C-terminal 4× histidine tag; 4xHis (C); made in house; host or cells: E. coli
T1 sequence (P11509 with tags, fused parts or gaps limits assumed): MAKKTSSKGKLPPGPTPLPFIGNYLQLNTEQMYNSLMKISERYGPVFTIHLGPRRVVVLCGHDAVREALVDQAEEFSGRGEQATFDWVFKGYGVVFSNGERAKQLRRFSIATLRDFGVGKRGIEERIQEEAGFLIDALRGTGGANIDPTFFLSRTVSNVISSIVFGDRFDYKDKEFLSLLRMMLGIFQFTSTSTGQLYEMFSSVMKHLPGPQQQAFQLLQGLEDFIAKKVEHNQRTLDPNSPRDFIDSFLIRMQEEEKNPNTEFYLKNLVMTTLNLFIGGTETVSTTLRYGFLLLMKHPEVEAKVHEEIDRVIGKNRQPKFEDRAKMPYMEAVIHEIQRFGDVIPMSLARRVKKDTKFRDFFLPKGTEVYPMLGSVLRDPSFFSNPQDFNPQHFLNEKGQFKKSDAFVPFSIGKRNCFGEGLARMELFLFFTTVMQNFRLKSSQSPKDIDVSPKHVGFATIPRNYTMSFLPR
Text: (§1) To date, virtually all attempts to characterize full-length mammalian cytochromes P450 have been restricted by the production of only small (nanomolar) amounts of protein. However, truncation of the non-catalytic N-terminal transmembrane helix and addition of a C-terminal 4× histidine tag allow us to recombinantly produce tens of milligrams of highly purified modified CYP2A13 and CYP2A6 proteins per liter of E. coli culture. These engineered versions of the proteins (CYP2A13dH and CYP2A6dH are not shown) are fully functional in both binding ligands and metabolism of substrates. Protein expression in E. coli is initiated with the addition of IPTG to media supplemented with the heme precursor aminolevulinic acid. After 48-72 hours this expression system yields approximately 500-1300 nmol (27-71 mg) of CYP2A13dH or CYP2A6dH per liter of bacterial culture. Briefly, P450 proteins are liberated from E, coli membranes using a specialized detergent and high salt conditions and subsequently purified using metal-affinity and carboxymethyl-sepharose (CM-sepharose) affinity chromatography. Overall purification yield is up to 14 mg of highly purified protein per liter of E. coli culture.
(§2) Cytochrome P4502A13dH was expressed and purified as previously described (J. Biol. Chem. (2007), 282(23)17306-17313). Briefly, CYP2A13 was solubilized from the membrane using 4.8 mM Cymal-5 detergent (Anatrace, Maumee, Ohio) and 0.3M NaCl followed by ultracentrifugation at 30,000 rpm for 60 minutes. The solubilized protein was applied to Ni^2+-agarose resin (Qiagen, Valencia, Calif.) and after extensive washing with Buffer A (0.1M potassium phosphate, pH 7.4, 20% glycerol, 0.2M sodium chloride, 4.8 mM cymal, 8 mM histidine), the protein was eluted using Buffer B (Buffer A containing 2 mM EDTA and 80 mM histidine). The fractions containing protein with absorbance at 415 nm were pooled, diluted 5-fold with Buffer C (5 mM potassium phosphate, pH 7.4, 20% glycerol, 4.8 mM Cymal-5), and loaded onto HiTrap CM-FF column. The column was washed extensively with Buffer C without the detergent. Purified CYP2A13 was eluted using Buffer C with 50 mM potassium phosphate and 500 mM NaCl. An average yield of 14 mgs of CYP2A13 was obtained per liter of E. coli culture, Cytochrome P4502A6dH was similarly prepared.
(§3) The UV/visible spectra of purified CYP2A13dH and CYP2A6dH have a Soret peak at 418 nm, indicative of a low-spin, six-coordinate configuration of the heme iron bound to an active site water molecule (FIG. 1A). When ligands bind in the active site they frequently displace the water from the iron, resulting in a shift to five-coordinate, high spin iron with a maximal absorbance 395 nm. For cytochrome P450 enzymes, one often records the spectrum shift that occurs as protein is titrated with ligand to determine ligand affinity (kd values) (FIG. 1B).
(§4) The compounds that induced spectral shifts close to that of the positive control (PEITC) were validated in the spectral shift assay using the low throughput cuvette method. CYP2A13 protein samples were diluted to a concentration of 1 μM in 100 mM potassium phosphate buffer (pH 7.4) and were divided equally between reference and sample 1 mL quartz cuvettes. Concentrated compound stocks were prepared in 100% DMSO and the sample baseline was taken from 300-500 nm before beginning the titration. Substrate was added to the sample cuvette, mixed, and allowed to equilibrate for 2 minutes. An equal amount of ethanol was added to the reference cuvette for every addition of compound stock to the sample. The total amount of ethanol was kept less than 2% for each titration. After each coumarin addition, difference spectra were recorded from 300-500 nm and the change maximum (˜420 nm) to the minimum (˜385 nm) was determined. Graphpad Prism 4 (Graphpad Software, San Diego, Calif.) was used to determine the Ks and ΔAmax with nonlinear least-squares regression fitting to the equation: […]

CYP2A13 = target: T2, CYP2A13 (Homo sapiens, UniProt Q16696); assay: Spectral shift ligand binding titration (cuvette method) with purified CYP2A13dH; details: for Selectivity 2A6 Kd/2A13 Kd: (CYP2A6 Kd)/(CYP2A13 Kd), higher numbers are more selective
T2 construct: truncation of the non-catalytic N-terminal transmembrane helix and addition of a C-terminal 4× histidine tag; 4xHis (C); made in house; host or cells: E. coli
T2 sequence (Q16696 with tags, fused parts or gaps limits assumed): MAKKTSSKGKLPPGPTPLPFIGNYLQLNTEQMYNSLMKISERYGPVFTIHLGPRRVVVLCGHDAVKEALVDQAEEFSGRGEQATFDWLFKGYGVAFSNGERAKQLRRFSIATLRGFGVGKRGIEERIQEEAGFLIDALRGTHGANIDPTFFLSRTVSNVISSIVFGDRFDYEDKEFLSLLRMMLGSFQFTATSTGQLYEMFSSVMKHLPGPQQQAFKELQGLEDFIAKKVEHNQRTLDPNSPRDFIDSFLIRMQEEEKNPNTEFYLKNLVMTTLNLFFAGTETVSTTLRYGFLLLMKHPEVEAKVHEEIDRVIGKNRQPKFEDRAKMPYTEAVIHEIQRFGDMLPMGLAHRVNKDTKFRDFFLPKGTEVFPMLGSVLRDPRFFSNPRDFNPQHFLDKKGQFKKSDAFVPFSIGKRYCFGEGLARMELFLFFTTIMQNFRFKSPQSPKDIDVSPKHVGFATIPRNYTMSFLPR
Text: as §1, §2, §3, §4

[1] = Table 1, average Kd, read-out: 2A13 Av. Kd
[2] = initial characterisation of the hits, read-out: initial Kd values, CYP2A13
[3] = multiple titrations, read-out: average Kd for CYP2A13

Row | Compound | pKd (CYP2A6) | Selectivity 2A6 Kd/2A13 Kd (CYP2A13) | pKd (CYP2A13; [1]) | 2A6 Av. Kd (CYP2A6) | binding to CYP2A6 in titration (CYP2A6) | spectral shift with CYP2A6 (CYP2A6) | pKd (CYP2A13; [2]) | pKd (CYP2A13; [3]) | pKd (CYP2A13; text b152, unit inferred, multiple titrations, read-out: average Kd) | pKd (CYP2A13; Table 2, unit inferred, read-out: 2A13 Kd)
1 | 4-(2,3-dichlorobenzyl)-1,6-dimethylmorpholine [Compound 10] | < 3.31 | 12.9 | 4.42 | – | – | – | – | – | – | –
2 | Clc1ccccc1CN1CCOCC1 [Compound 1, 4-(2-chlorobenzyl)morpholine] | – | high | – | No binding | no substantially binding | no spectral shift | 5.74 | 5.14 | – | –
3 | Fc1cccc(Cl)c1CN1CCOCC1 [Compound 2, 4-(2-chloro-6-fluorobenzyl)morpholine] | – | high | – | No binding | no binding | absolutely no spectral shift | – | ~5.24 and 5.24 | – | –
4 | Cc1ccccc1CN1CCOCC1 [Compound 3, 4-(2-methylbenzyl)morpholine] | – | high | 4.71 | No binding | no substantially binding | no spectral shift | 5.40 | 4.71 | 4.71 | –
5 | Brc1ccccc1CN1CCOCC1 [Compound 4, 4-(2-bromobenzyl)morpholine] | – | high | 5.15 | No binding | – | – | – | – | – | –
6 | Fc1ccccc1CN1CCOCC1 [Compound 5, 4-(2-fluorobenzyl)morpholine] | – | high | 4.14 | No binding | – | – | – | – | – | –
7 | Clc1ccccc1CN1CCSCC1 [Compound 6, 4-(2-chlorobenzyl)thiomorpholine] | 3.81 | 15.5 | 5.00 | – | – | – | – | – | – | –
8 | Clc1cccc(CN2CCOCC2)c1Cl [Compound 7, 4-(2,3-dichlorobenzyl)morpholine] | 3.10 | 27 | 4.55 | – | – | – | – | – | – | –
9 | Clc1cccc(Cl)c1CN1CCOCC1 [Compound 8, 4-(2,6-dichlorobenzyl)morpholine] | 3.26 | 291 | 5.72 | – | – | – | – | – | – | –
10 | Clc1ccc(CN2CCOCC2)c(Cl)c1 [Compound 9, 4-(2,4-dichlorobenzyl)morpholine] | 3.70 | 5.66 | 4.46 | – | – | – | – | – | – | –
11 | C1CN(C2C3CC4CC(C3)CC2C4)CCO1 (centres unmarked) [Compound 31, 4-(2-adamantyl)morpholine hydrochloride] | – | – | – | – | – | – | – | – | – | 4.54
